Experimental data published in patent US8318815B2, “Method for treatment of tumors using nordihydroguaiaretic acid derivatives” (priority 1999, dated 2012).
Values joined by “and” are separate entries in the source; they are usually repeats but may differ in a detail not shown here. Equal entries are not always repeated. Marks after values point to notes of the source that are not given here.

Experiments:
[1] = test system: cellular gene expression in C3 cells; assay: 9600 gene array hybridization of C3 cells; type: cell-based, mouse; settings: 72 hrs
Text: Gene expression with 9600 gene arrays was studied (FIG. 5). Five micrograms each of poly A^+RNA from 72 hrs. M4N ([…]) treated (C3 M4N) and non-treated (C3 DMSO) was used in a pair of human 9600 gene array hybridization study according to the procedure described in Genomics 51, 313-324 1998. The hybridization image was captured by a color video camera with a Nikon 55 mm AF micro Niko lens and digitized by a Macintosh LC630 computer. Such detection via enzyme substrate reaction of color-forming enzymes in either single or dual-color mode is reproducible and extremely sensitive (can detect <5 copies of transcript per cell with RNAs from 10^7 cells).
[…]. Image files in TIFF format and data files in MS excel format are kept on ZIP diskette. Gene names and clone ID numbers are available for obtaining Image clones for future northern blot confirmation.

C33a cell line = assay: C33a cell growth; type: cell-based, human; settings: three days
Protocol: FIG. 9. […] (a-d) C3, CEM-T4, C33a, and TC-1 cells were treated with different concentrations of M4N. The number of cells present at the initiation of the experiment is indicated as Day 0. After three days the number of viable cells were counted and plotted versus the M4N concentration. […] After 3 days, one-half of the M4N treated cells were given fresh media containing only 1% DMSO (M-D), while the rest of the cells were given fresh media with the same conditions (second media change). The cells were counted daily and plotted versus the time of treatment.

CEM-T4 cells = assay: Cell cycle DNA content by propidium iodide flow cytometry, CEM-T4; settings: CEMT4, 72 hours
Text: The cells were trypsinized, fixed with ethanol, stained with propidium iodide, and were subsequently analyzed by flow cytommetry. […] The indicated stages of the cell cycle are labeled and correspond to the relative cellular DNA compliment as determined by staining intensity.

C3 tumor = C3 tumor growth in mice, local (intratumoral) injection; type: in vivo
Protocol: Thirty six C57b1-16 NCR mice were injected with 5×10^5 C3 cells between the shoulders on the backs of the mice. Twenty four of the mice developed tumors within 20 days. […]
36 C57b1-16NCR mice were injected with 5×10^5 C3 cells/mouse. Injections were 100 μL made subcutaneously between the shoulders on the backs of the mice. Cells were suspended in low-salt HBSS and suspension uniformity was maintained by gentle vortexing.
24 mice developed tumors. Their lesion sizes were measured by dial caliper. These mice were shaved, weight and treatment begun (Day 1). Four were sequestered as controls. Control mice received 50 μl DMSO injected intratumorally daily. […]. Injections were made to several regions of tumor. Mice anesthetized with ether or metaphane prior to injection.
The treatment regimen and results were as follows: • Day 10: Mice weighed again. […]. The skin at the lesion site of #17 cracked with the “dried-out tumor” showing. It was dissected, and lesion excised and weighed. […]. Remaining control mice (#1, 3, 4) were examined non-invasively and were carrying tumors. • Day 21: Tumor sizes from control mice were measured by dial caliper. […]. […]

[2] = mice carrying multiple tumors, per mouse
[3] = mice with single tumors, per mouse

With `COc1ccc(C[C@@H](C)[C@@H](C)Cc2ccc(OC)c(OC)c2)cc1OC` [M4N, tetra-O-methylnordihydroguaiaretic acid] the “Cyclin-dependent kinase 7 expression, Treated” value ([1]; 40 μM, Untreated = 100%) was “(5%)”, the “Cysteine protease expression, Treated” value ([1]; 40 μM, Untreated = 100%) was “(7%)” and the “Human TNF-related Apoptosis AP02 expression, Treated” value ([1]; 40 μM, Untreated = 100%) was “(3%)”. For the same compound, the “Human cytokine receptor expression, Treated” value ([1]; 40 μM, Untreated = 100%) was “(2%)”, the “Proliferating cell nuclear antigen, PCNA expression, Treated” value ([1]; 40 μM, Untreated = 100%) was “(1%)” and the “Increase: Apoptosis (APO-1) antigen” value ([1]; 40 μm, vs C3 DMSO) was “(100X)”. For the same compound, the “Increase: Cyclin-dependent kinase inhibitor” value ([1]; 40 μm, vs C3 DMSO) was “(100X)”, the “Increase: Death Domain Three DR3” value ([1]; 40 μm, vs C3 DMSO) was “(100X)” and the “Increase: Human Map Kinase” value ([1]; 40 μm, vs C3 DMSO) was “(40X)”. The “Increase: Ras-related protein RAP-1” value ([1]; 40 μm, vs C3 DMSO) was “(60X)”, the “growth of C33a cell line” value (C33a cell line) was “blocked” and the “cells showing G2/M DNA content” value (CEM-T4 cells) was greater than 90%. The “body weight changes during the entire experimental period” value (C3 tumor; Tables 1 and 2) was “insignificant”, the “tumor growth in mice” value (C3 tumor; daily injection of 50 μl to 100 μl for several days) was “completely stop tumor growth” and the “average weight of treated lesions” value (C3 tumor; mice carrying multiple tumors, drug injected into one of the tumors) was 0.15 g. The “Body wt. Day 1” value (C3 tumor; [2]) was 17.8 g and 20.2 g and 17.5 g, the “Body wt. Day 24” value (C3 tumor; [2]) was 20.0 g and 17.9 g and 22.1 g and the “Wt. Of Excised Lesion, Treated” value (C3 tumor; mice carrying multiple tumors, drug injected directly to the tumor regions, per mouse) was 0.11 g and 0.25 g and 0.1 g. The “average weight of excised lesions” value (C3 tumor; mice carrying single tumors, control group 1.48 g) was 0.142 g, the “Body wt. Day 1” value (C3 tumor; [3]) was 19 g and 18.2 g and 19.5 g and 17 g and 18.9 g and 17.2 g and 17.3 g and the “Body wt. Day 16” value (C3 tumor; [3]) was 19.2 g and 17.6 g (2×) and 20.0 g. For the same compound, the “Body wt. Day 24” value (C3 tumor; [3]) was 20.4 g and 20.2 g, the “Wt. Of Excised Lesion Day 16” value (C3 tumor; [3]) was 0.2 g and 0.4 g and 0.1 g and 0 g and the “Wt. Of Excised Lesion Day 24” value (C3 tumor; [3]) was 0.1 g and 0 g. The “Wt. Of Excised Lesion, taken on Day 15” value (C3 tumor; mouse 17, single tumor) was 0.2** g.
